Laboratory results as given in patent US20220356170A1, “SREBP INHIBITOR COMPRISING A THIOPHENE CENTRAL RING” (Capulus Therapeutics, LLC, priority 2019, published 2022).

What was measured:
Test in all cases: Cancer cell growth inhibition, Sulforhodamine B
Assay type in all cases: cell-based
[1] = system: CALU6; details: Homo sapiens, Calu-6; CALU6 (lung), 72 hr; Non-Responder Cell Lines with IC50 >10 uM or Not Determined
Description: (§1) The ability of select compounds to inhibit cell growth in various cancer cell lines are evaluated. […] The cell lines shown in Table 5 have reduced growth by at least 50% at 10 uM or lower over 72 hr treatment in growth media. The cell lines shown in Table 6 have reduced growth by at least 50% with an IC50 greater than 10 uM.
(§2) Six 10-fold compound dilutions are prepared in DMSO (e.g. 10 mM, 1 mM, 100 uM, 10 uM, 1 uM, and 0.1 uM). Single data points are acquired for each concentration. The final concentration of DMSO is 0.1%. The duration of the treatment is 72 hr. Growth inhibition is measured using Sulforhodamine B in a protein staining assay. Activity of the agents is determined by evaluation the following parameters: IC50, GI50, IC10, TGI, LC50, IC90, and GI90 (where these values can be calculated).

[2] = system: HT1080; details: Homo sapiens, HT-1080; HT1080 (connective tissue), 72 hr; Responder Cell Lines
Description: as §1, §2

[3] = system: HL-60; details: Homo sapiens; HL-60 (hematological), 72 hr; Responder Cell Lines
Description: as §1, §2

[4] = system: NCIH358M; details: NCI-H358M; NCIH358M (lung), 72 hr; Non-Responder Cell Lines with IC50 >10 uM or Not Determined
Description: as §1, §2

[5] = system: SU-DHL-6; details: Homo sapiens, SU-DHL-6, 72 h, SU-DHL-6 (hematological)
Description: as §1, §2

[6] = system: HEK293; details: Homo sapiens; HEK293 (kidney), 72 hr; Responder Cell Lines
Description: as §1, §2

[7] = system: SF295; details: Homo sapiens, SF-295, 72 h, SF295 (brain)
Description: as §1, §2

[8] = system: WSU-NHL; details: Homo sapiens, 72 h, WSU-NHL (hematological)
Description: as §1, §2

[9] = system: HCT116; details: Homo sapiens, HCT-116; HCT116 (colon), 72 hr; Responder Cell Lines
Description: as §1, §2

[10] = system: TE671; details: Homo sapiens, TE-671, 72 h, TE671 (muscle)
Description: as §1, §2

[11] = system: KASUMI-1; details: Homo sapiens; KASUMI-1 (hematological), 72 hr; Non-Responder Cell Lines with IC50 >10 uM or Not Determined
Description: as §1, §2

[12] = system: MT3; details: MT-3, 72 h, MT3 (breast)
Description: as §1, §2

[13] = system: SKNAS; details: Homo sapiens, SK-N-AS; SKNAS (brain), 72 hr; Non-Responder Cell Lines with IC50 >10 uM or Not Determined
Description: as §1, §2

[14] = system: SAOS2; details: Homo sapiens, SAOS-2; SAOS2 (bone), 72 hr; Non-Responder Cell Lines with IC50 >10 uM or Not Determined
Description: as §1, §2

[15] = system: MV4-11; details: Homo sapiens, MV4-11, 72 h, MV4-11 (hematological)
Description: as §1, §2

[16] = system: MG63; details: Homo sapiens, MG-63; MG63 (bone), 72 hr; Non-Responder Cell Lines with IC50 >10 uM or Not Determined
Description: as §1, §2

[17] = system: U2OS; details: Homo sapiens; U2OS (bone), 72 hr; Non-Responder Cell Lines with IC50 >10 uM or Not Determined
Description: as §1, §2

[18] = system: SF268; details: Homo sapiens, SF-268; SF268 (brain), 72 hr; Non-Responder Cell Lines with IC50 >10 uM or Not Determined
Description: as §1, §2

[19] = system: MDAMB468; details: Homo sapiens, MDA-MB-468, 72 h, MDAMB468 (breast)
Description: as §1, §2

[20] = system: MDAMB435; details: Homo sapiens, MDA-MB-435; MDAMB435 (skin), 72 hr; Responder Cell Lines
Description: as §1, §2

[21] = system: SKLMS1; details: Homo sapiens, SK-LMS-1; SKLMS1 (uterus), 72 hr; Non-Responder Cell Lines with IC50 >10 uM or Not Determined
Description: as §1, §2

[22] = system: OVCAR4; details: Homo sapiens, OVCAR-4; OVCAR4 (ovary), 72 hr; Non-Responder Cell Lines with IC50 >10 uM or Not Determined
Description: as §1, §2

[23] = system: SKOV3; details: Homo sapiens, SK-OV-3; SKOV3 (ovary), 72 hr; Non-Responder Cell Lines with IC50 >10 uM or Not Determined
Description: as §1, §2

[24] = Non-Responder Cell Lines with IC50 >10 uM or Not Determined

- IC50 [1]: > 10 µM
- IC50 [2]: < 10 µM
- IC50 [3]: < 10 µM
- IC50 [4]: > 10 µM
- IC50 [5, 24]: > 10 µM
- IC50 ([5]; Responder Cell Lines): < 10 µM
- IC50 [7, 24]: > 10 µM
- IC50 ([7]; Responder Cell Lines): < 10 µM
- IC50 [8, 24]: > 10 µM
- IC50 ([8]; Responder Cell Lines): < 10 µM
- IC50 [9]: < 10 µM
- IC50 [10, 24]: > 10 µM
- IC50 ([10]; Responder Cell Lines): < 10 µM
- IC50 [11]: > 10 µM
- IC50 [12, 24]: > 10 µM
- IC50 ([12]; Responder Cell Lines): < 10 µM
- IC50 [13]: > 10 µM
- IC50 [14]: > 10 µM
- IC50 [15, 24]: > 10 µM
- IC50 ([15]; Responder Cell Lines): < 10 µM
- IC50 [16]: > 10 µM
- IC50 [17]: > 10 µM
- IC50 [18]: > 10 µM
- IC50 [19, 24]: > 10 µM
- IC50 ([19]; Responder Cell Lines): < 10 µM
- IC50 [20]: < 10 µM
- IC50 [21]: > 10 µM
- IC50 [22]: > 10 µM
- IC50 [23]: > 10 µM
Structure (SMILES): CC(C)(O)c1cc(-c2csc(-c3ccc(C(=O)N4CCC(O)CC4)cc3Cl)c2)ccn1 [Compound 1, (3-chloro-4-(4-(2-(2-hydroxypropan-2-yl)pyridin-4-yl)thiophen-2-yl)phenyl)(4-hydroxypiperidin-1-yl)methanone]
- IC50 [6]: < 10 µM
